Experimental data published in PubChem BioAssay AID2060487 (Molecular Pharmacology Branch, DTP, NCI, 2025).

System: 997537-175-T-J1-PDC complex spheroid viability
Assay: Anticancer human tumor 997537-175-T-J1-PDC patient-derived colon adenocarcinoma cell line growth inhibition [GQUAD]
Conditions: for IC50: curve of first compound; for viability, T/C: stronger effect = lower value
Outline: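 Multi-cell-type spheroids of tumor cells with HUVEC and mesenchymal stem cells, treated with drug combinations. Concentrations descend in half-log steps from near clinical Cmax, or from 10 microM where Cmax is unknown; viability read-out.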

[1] = second compound 0.0316 µM, first compound 0.0316 µM
[2] = second compound 0.0316 µM, first compound 0.1 µM
[3] = second compound 0.0316 µM, first compound 0.316 µM
[4] = second compound 0.0316 µM, first compound 1 µM
[5] = second compound 0.0316 µM, first compound 3.16 µM
[6] = second compound 0.0316 µM, first compound 10 µM
[7] = second compound 0.1 µM, first compound 0.0316 µM
[8] = second compound 0.1 µM, first compound 0.1 µM
[9] = second compound 0.1 µM, first compound 0.316 µM
[10] = second compound 0.1 µM, first compound 1 µM
[11] = second compound 0.1 µM, first compound 3.16 µM
[12] = second compound 0.1 µM, first compound 10 µM
[13] = second compound 0.316 µM, first compound 0.0316 µM
[14] = second compound 0.316 µM, first compound 0.1 µM
[15] = second compound 0.316 µM, first compound 0.316 µM
[16] = second compound 0.316 µM, first compound 1 µM
[17] = second compound 0.316 µM, first compound 3.16 µM
[18] = second compound 0.316 µM, first compound 10 µM
[19] = second compound 1 µM, first compound 0.0316 µM
[20] = second compound 1 µM, first compound 0.1 µM
[21] = second compound 1 µM, first compound 0.316 µM
[22] = second compound 1 µM, first compound 1 µM
[23] = second compound 1 µM, first compound 3.16 µM
[24] = second compound 1 µM, first compound 10 µM
[25] = second compound 3.16 µM, first compound 0.0316 µM
[26] = second compound 3.16 µM, first compound 0.1 µM
[27] = second compound 3.16 µM, first compound 0.316 µM
[28] = second compound 3.16 µM, first compound 1 µM
[29] = second compound 3.16 µM, first compound 3.16 µM
[30] = second compound 3.16 µM, first compound 10 µM
[31] = second compound 10 µM, first compound 0.0316 µM
[32] = second compound 10 µM, first compound 0.1 µM
[33] = second compound 10 µM, first compound 0.316 µM
[34] = second compound 10 µM, first compound 1 µM
[35] = second compound 10 µM, first compound 3.16 µM
[36] = second compound 10 µM, first compound 10 µM
[37] = second compound 0.0316 µM, first compound 0.000999 µM
[38] = second compound 0.0316 µM, first compound 0.00316 µM
[39] = second compound 0.0316 µM, first compound 0.00999 µM
[40] = second compound 0.0316 µM, first compound 0.0999 µM
[41] = second compound 0.1 µM, first compound 0.000999 µM
[42] = second compound 0.1 µM, first compound 0.00316 µM
[43] = second compound 0.1 µM, first compound 0.00999 µM
[44] = second compound 0.1 µM, first compound 0.0999 µM
[45] = second compound 0.316 µM, first compound 0.000999 µM
[46] = second compound 0.316 µM, first compound 0.00316 µM
[47] = second compound 0.316 µM, first compound 0.00999 µM
[48] = second compound 0.316 µM, first compound 0.0999 µM
[49] = second compound 1 µM, first compound 0.000999 µM
[50] = second compound 1 µM, first compound 0.00316 µM
[51] = second compound 1 µM, first compound 0.00999 µM
[52] = second compound 1 µM, first compound 0.0999 µM
[53] = second compound 3.16 µM, first compound 0.000999 µM
[54] = second compound 3.16 µM, first compound 0.00316 µM
[55] = second compound 3.16 µM, first compound 0.00999 µM
[56] = second compound 3.16 µM, first compound 0.0999 µM
[57] = second compound 10 µM, first compound 0.000999 µM
[58] = second compound 10 µM, first compound 0.00316 µM
[59] = second compound 10 µM, first compound 0.00999 µM
[60] = second compound 10 µM, first compound 0.0999 µM
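Note: spheroids exposed to the agents for 7 days.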
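Throughout, for viability, T/C: 100% = DMSO vehicle control viability.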

CC(C)(O)C1CCC(Nc2ccc3ncc(-c4cccc(C(F)(F)F)c4)n3n2)CC1 (stereo not drawn) + Cc1cnc(CNC(=O)c2c(=O)c3ccc(N4CCCN(C)CC4)nc3n3c2sc2ccccc23)cn1
IC50 (second compound 0.0316 µM): 1130 nM | IC50 (second compound 0.1 µM): 896 nM | IC50 (second compound 0.316 µM): 1380 nM | IC50 (second compound 1 µM): 1730 nM | IC50 (second compound 3.16 µM): 1500 nM | IC50 (second compound 10 µM): 1570 nM | viability, T/C [1]: 90.1% | viability, T/C [2]: 66.9% | viability, T/C [3]: 88.4% | viability, T/C [4]: 52.1% | viability, T/C [5]: 32.2% | viability, T/C [6]: 30.2% | viability, T/C [7]: 87.6% | viability, T/C [8]: 80.2% | viability, T/C [9]: 73.4% | viability, T/C [10]: 46.9% | viability, T/C [11]: 36.7% | viability, T/C [12]: 33.7% | viability, T/C [13]: 98.1% | viability, T/C [14]: 81.1% | viability, T/C [15]: 80.5% | viability, T/C [16]: 57.2% | viability, T/C [17]: 31.7% | viability, T/C [18]: 36.5% | viability, T/C [19]: 69.9% | viability, T/C [20]: 101% | viability, T/C [21]: 91.4% | viability, T/C [22]: 64.5% | viability, T/C [23]: 35.4% | viability, T/C [24]: 27% | viability, T/C [25]: 92.5% | viability, T/C [26]: 84.4% | viability, T/C [27]: 96.3% | viability, T/C [28]: 65.4% | viability, T/C [29]: 20.1% | viability, T/C [30]: 23.2% | viability, T/C [31]: 76.2% | viability, T/C [32]: 108% | viability, T/C [33]: 91.5% | viability, T/C [34]: 69.4% | viability, T/C [35]: 19.1% | viability, T/C [36]: 21.2%

CC[C@@]1(O)C(=O)OCc2c1cc1n(c2=O)Cc2cc3c(CN(C)C)c(O)ccc3nc2-1 + Cc1cnc(CNC(=O)c2c(=O)c3ccc(N4CCCN(C)CC4)nc3n3c2sc2ccccc23)cn1
IC50 (second compound 0.0316 µM): > 316 nM | IC50 (second compound 0.1 µM): > 316 nM | IC50 (second compound 0.316 µM): > 316 nM | IC50 (second compound 1 µM): > 316 nM | IC50 (second compound 3.16 µM): > 316 nM | IC50 (second compound 10 µM): > 316 nM | viability, T/C [37]: 108% | viability, T/C [38]: 104% | viability, T/C [39]: 97.8% | viability, T/C [1]: 82% | viability, T/C [40]: 72.3% | viability, T/C [3]: 80.4% | viability, T/C [41]: 97.8% | viability, T/C [42]: 97.5% | viability, T/C [43]: 92.7% | viability, T/C [7]: 90.1% | viability, T/C [44]: 97.5% | viability, T/C [9]: 58% | viability, T/C [45]: 92.8% | viability, T/C [46]: 88.8% | viability, T/C [47]: 105% | viability, T/C [13]: 85% | viability, T/C [48]: 98.8% | viability, T/C [15]: 66.3% | viability, T/C [49]: 89.8% | viability, T/C [50]: 93.5% | viability, T/C [51]: 101% | viability, T/C [19]: 93.5% | viability, T/C [52]: 108% | viability, T/C [21]: 59% | viability, T/C [53]: 75% | viability, T/C [54]: 104% | viability, T/C [55]: 118% | viability, T/C [25]: 89.7% | viability, T/C [56]: 96.1% | viability, T/C [27]: 58.8% | viability, T/C [57]: 97.7% | viability, T/C [58]: 108% | viability, T/C [59]: 130% | viability, T/C [31]: 69% | viability, T/C [60]: 94.5% | viability, T/C [33]: 70.2%

CCc1c2c(nc3ccc(O)cc13)-c1cc3c(c(=O)n1C2)COC(=O)[C@]3(O)CC + Cc1[nH]c2ccc(F)cc2c1-c1nc2c3cccnc3c3ncccc3c2[nH]1
IC50 (second compound 0.0316 µM): 11.9 nM | IC50 (second compound 0.1 µM): 9.18 nM | IC50 (second compound 0.316 µM): 11.9 nM | IC50 (second compound 1 µM): 8.52 nM | IC50 (second compound 3.16 µM): 10.7 nM | IC50 (second compound 10 µM): 6.48 nM | viability, T/C [37]: 84.3% | viability, T/C [38]: 94.4% | viability, T/C [39]: 54.2% | viability, T/C [1]: 16.6% | viability, T/C [40]: 7.8% | viability, T/C [3]: 2.95% | viability, T/C [41]: 75% | viability, T/C [42]: 74.8% | viability, T/C [43]: 45.2% | viability, T/C [7]: 22% | viability, T/C [44]: 5.55% | viability, T/C [9]: 2.19% | viability, T/C [45]: 90.5% | viability, T/C [46]: 94.3% | viability, T/C [47]: 53.3% | viability, T/C [13]: 19.2% | viability, T/C [48]: 7.44% | viability, T/C [15]: 2.71% | viability, T/C [49]: 81.9% | viability, T/C [50]: 76.6% | viability, T/C [51]: 44.4% | viability, T/C [19]: 19.6% | viability, T/C [52]: 6.99% | viability, T/C [21]: 7.31% | viability, T/C [53]: 69% | viability, T/C [54]: 56.6% | viability, T/C [55]: 54% | viability, T/C [25]: 22.1% | viability, T/C [56]: 7.42% | viability, T/C [27]: 2.8% | viability, T/C [57]: 69.2% | viability, T/C [58]: 52.8% | viability, T/C [59]: 48% | viability, T/C [31]: 17.1% | viability, T/C [60]: 3.72% | viability, T/C [33]: 2.19%

C=CC(=O)N1CCN(c2nc(=O)n(-c3c(C)ccnc3C(C)C)c3nc(-c4c(O)cccc4F)c(F)cc23)C(C)C1 (stereo not drawn) + Cc1[nH]c2ccc(F)cc2c1-c1nc2c3cccnc3c3ncccc3c2[nH]1
IC50 (second compound 0.0316 µM): > 10000 nM | IC50 (second compound 0.1 µM): > 10000 nM | IC50 (second compound 0.316 µM): > 10000 nM | IC50 (second compound 1 µM): > 10000 nM | IC50 (second compound 3.16 µM): > 10000 nM | IC50 (second compound 10 µM): > 10000 nM | viability, T/C [1]: 102% | viability, T/C [2]: 89.9% | viability, T/C [3]: 86.2% | viability, T/C [4]: 92.5% | viability, T/C [5]: 91.7% | viability, T/C [6]: 97.5% | viability, T/C [7]: 91.1% | viability, T/C [8]: 71.1% | viability, T/C [9]: 87.9% | viability, T/C [10]: 75.4% | viability, T/C [11]: 101% | viability, T/C [12]: 92% | viability, T/C [13]: 92.4% | viability, T/C [14]: 65.8% | viability, T/C [15]: 74.8% | viability, T/C [16]: 85.9% | viability, T/C [17]: 95.3% | viability, T/C [18]: 96.5% | viability, T/C [19]: 92.8% | viability, T/C [20]: 89.9% | viability, T/C [21]: 87.9% | viability, T/C [22]: 83.2% | viability, T/C [23]: 90.2% | viability, T/C [24]: 97.6% | viability, T/C [25]: 80.7% | viability, T/C [26]: 72.5% | viability, T/C [27]: 74.3% | viability, T/C [28]: 89% | viability, T/C [29]: 100% | viability, T/C [30]: 80% | viability, T/C [31]: 82.3% | viability, T/C [32]: 75.8% | viability, T/C [33]: 87.3% | viability, T/C [34]: 69.8% | viability, T/C [35]: 79.3% | viability, T/C [36]: 84.3%
